# Assay results from publication PMC6768323, “Adverse Maternal, Fetal, and Postnatal Effects of Hexafluoropropylene Oxide Dimer Acid (GenX) from Oral Gestational Exposure in Sprague-Dawley Rats” (Environmental Health Perspectives, 2019).
# System: fetal testis
# Experiment: Fetal testis custom gene array for phthalate-like effects
# Format: in vivo, Sprague-Dawley rats
# Conditions: 62.5-500 mg/kg/d
# Procedure: For the first two blocks, spanning the full dose range, late gestation (GD18) dams were euthanized by decapitation at ∼2h after the final oral dose [ ∼0830–1000 hours Eastern Standard Time (EST)]. Trunk blood was collected and serum isolated via centrifugation ( 10,000×g for 15 min at 4°C) in vacutainer tubes, transferred to 1.5-mL microcentrifuge tubes and stored at −80°C . Dam liver weight was recorded and a sample of liver tissue was collected into a polypropylene microcentrifuge tube containing 500μL TRIzol Reagent (Invitrogen) on ice. Fetuses were removed and two randomly selected fetuses per litter were weighed. […] Ex vivo fetal testis testosterone production was measured as previously reported ([Wilson et al. 2004b]) except the radioimmunoassay (RIA) utilized here was supplied by ALPCO (Catalog No. 72-TESTO-CT2, ALPCO). […]
# Gene expression in fetal testes and fetal/maternal livers was assessed using reverse transcriptase real-time PCR of cDNA synthesized from RNA extracted from sample homogenates. […] RNA concentration and purity (260:280 ratio ≥1.8 ) were determined with a NanoDrop 2000 spectrophotometer (Thermo Scientific). […] PCR reactions were run using RT2 SYBR Green quantitative PCR (qPCR) Master Mix (SABioscience) on an iCycler iQ Real-Time Detection System (Bio-Rad) for fetal testes and on a CFX96 Touch Real-Time Detection System (Bio-Rad) for maternal and fetal livers. […]
smiles,measurement,value
"O=C(O)C(F)(OC(F)(F)C(F)(F)C(F)(F)F)C(F)(F)F (stereo not shown) [HFPO-DA, Hexafluoropropylene oxide dimer acid]",fetal testis gene expression versus controls,not significantly different from controls
